Literature values, collected in patent US20200253976A1, “Endothelial Facilitation in Neurodegerative Diseases by Cerebral Blood Flow Enhancement” (UNIVERSITY OF MASSACHUSETTS, priority 2017, published 2020).
Like-named read-outs stand apart in the source and are kept apart here.

What was measured:
[1] = phase 2 study
eNOS = biological target: T1, eNOS (Homo sapiens, UniProt P29474); settings: endothelial dysfunction where l-arginine is rate-limiting
T1 sequence (P29474 1-1203): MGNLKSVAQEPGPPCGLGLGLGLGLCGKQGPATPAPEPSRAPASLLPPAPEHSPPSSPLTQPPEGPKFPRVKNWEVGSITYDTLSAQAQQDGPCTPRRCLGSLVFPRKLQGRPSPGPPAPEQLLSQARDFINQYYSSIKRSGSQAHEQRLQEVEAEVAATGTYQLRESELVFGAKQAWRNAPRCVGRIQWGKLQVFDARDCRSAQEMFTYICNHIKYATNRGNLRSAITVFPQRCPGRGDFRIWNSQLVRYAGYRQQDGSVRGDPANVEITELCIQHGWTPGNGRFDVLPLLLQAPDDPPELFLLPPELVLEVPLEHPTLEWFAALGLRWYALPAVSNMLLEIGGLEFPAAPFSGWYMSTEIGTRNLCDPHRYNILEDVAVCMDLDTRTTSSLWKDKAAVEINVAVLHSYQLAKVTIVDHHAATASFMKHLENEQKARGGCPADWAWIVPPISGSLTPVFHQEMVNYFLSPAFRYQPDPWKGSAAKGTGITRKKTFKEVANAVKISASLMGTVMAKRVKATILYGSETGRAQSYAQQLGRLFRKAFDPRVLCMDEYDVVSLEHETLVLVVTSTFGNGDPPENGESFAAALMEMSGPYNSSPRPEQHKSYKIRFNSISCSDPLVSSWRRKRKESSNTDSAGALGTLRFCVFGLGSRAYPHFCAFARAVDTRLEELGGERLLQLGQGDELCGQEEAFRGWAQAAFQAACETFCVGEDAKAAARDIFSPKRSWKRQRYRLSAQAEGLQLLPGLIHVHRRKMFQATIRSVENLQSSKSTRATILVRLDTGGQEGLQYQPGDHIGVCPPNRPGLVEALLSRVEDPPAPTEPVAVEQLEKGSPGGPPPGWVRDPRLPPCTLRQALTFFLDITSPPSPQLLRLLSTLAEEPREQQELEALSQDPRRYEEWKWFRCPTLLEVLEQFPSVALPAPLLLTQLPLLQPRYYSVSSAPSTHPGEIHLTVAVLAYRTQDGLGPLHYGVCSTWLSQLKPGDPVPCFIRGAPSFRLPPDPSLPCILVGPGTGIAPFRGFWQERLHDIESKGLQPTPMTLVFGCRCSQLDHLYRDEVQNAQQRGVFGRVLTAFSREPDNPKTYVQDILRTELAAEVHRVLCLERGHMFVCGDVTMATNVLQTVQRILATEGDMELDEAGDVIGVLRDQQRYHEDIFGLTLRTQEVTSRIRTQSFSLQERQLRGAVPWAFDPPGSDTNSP

NOS = settings: mouse ovarian follicles; L-arginine omitted
[2] = in vivo
[3] = test system: treated subjects with Alzheimer's disease; settings: human trial in AD, stopped prematurely

NC(=O)[C@@H](CCC(F)(F)F)N(Cc1ccc(-c2ncon2)cc1F)S(=O)(=O)c1ccc(Cl)cc1 [Avagacestat]
cognitive benefit [1]: no cognitive benefit

NC(=O)NCCC[C@H](N)C(=O)O [L-citrulline]
eNOS activity on supplementation (eNOS): fully restored
compensation for L-arginine withdrawal (NOS phenotype) (NOS): partial compensation

NC(=NCCC[C@H](N)C(=O)O)NO [NG-hydroxy-L-arginine]
compensation for L-arginine withdrawal (NOS phenotype) (NOS): partial compensation

C[C@H](O)[C@H](O)[C@H]1CNc2nc(N)[nH]c(=O)c2N1 [Sapropterin, tetrahydrobiopterin]
abdominal pain, frequency (gastrointestinal side effect): 5%
diarrhea, frequency (gastrointestinal side effect): 8%
nausea, frequency (gastrointestinal side effect): 4%
vomiting, frequency (gastrointestinal side effect): 8%
headache, frequency (in vivo): 15%
nasal discharge, frequency (upper respiratory symptom): 11%
pain in throat, frequency (upper respiratory symptom): 10%
upper respiratory infection, frequency (upper respiratory symptom): 12-17%

C[C@@H](C(=O)O)c1ccc(-c2ccccc2)c(F)c1 [Tarenflurbil]
benefit in AD [2]: failed to produce any benefit

CC(C)[C@H](O)C(=O)N[C@@H](C)C(=O)N[C@@H]1C(=O)N(C)CCc2ccccc21 [semagacestat]
cognitive performance of treated subjects versus control / placebo [3]: significantly worse cognitive performance than control subjects
cognitive performance of treated subjects versus control / placebo ([3]; listed as Semagacestat): exacerbated cognitive decline compared with placebo

AN-1792: Abeta active immunization (Elan Pharmaceuticals, Inc.)
Aβ in the brain of treated subjects (patients with AD; active immunization): decreased Aβ markedly
progression of dementia (patients with AD; active immunization, even when the amyloid plaques had been removed): failed to decrease the progression of dementia
brain atrophy on quantitative imaging versus control subjects (patients with AD; treated subjects with immunological response and decreased amyloid burden): greater brain atrophy
autoimmune encephalopathy (patients with AD; trial stopped): several subjects developed an autoimmune encephalopathy
